Source: patent publication US20230136075A1, “TREATMENT FOR SEPSIS-INDUCED ORGAN DYSFUNCTION” (The Florey Institute of Neuroscience and Mental Health, priority 2020, published 2023)
Read-outs that look alike come from different tables or passages of the source.

Experiments:
[1] = test system: ovine sepsis induced by intravenous infusion of live E. coli; assay: Vitamin C dose response in ovine sepsis (Example 3); format: in vivo
Experimental: The inventors then sought to determine the minimum dose of intravenous vitamin C required to reverse the pathophysiological features of sepsis and acute kidney injury, using the ovine sepsis model described in Example 1. Surgical procedures and initiation of gram negative sepsis were as described in Example 1.
At 24 hours of sepsis, sheep were randomised into one of four groups (n=2 each): (i) sodium ascorbate treatment at 1 g/kg for 7 hours; (ii) sodium ascorbate treatment at 2 g/kg for 7 hours; (iii) sodium ascorbate treatment at 3 g/kg for 7 hours; or (iv) fluid-matched vehicle. Norepinephrine doses were titrated to achieve a target blood pressure (75-80 mm Hg). All sodium ascorbate doses were given as a bolus followed by a continuous infusion. The bolus doses for the 1, 2 and […] treatments were, respectively, 0.133, 0.267 and 0.4 g/kg (5.3, 10.7 and 16 g for a 40 kg sheep. Sodium ascorbate was diluted in 1:1 ratio with 5% glucose prior to intravenous administration. At 31 hours of sepsis, animals were euthanised for tissue collection to facilitate molecular and histological investigations.

[2] = test system: ovine sepsis induced by intravenous infusion of live E. coli
Text: Using this model, the inventors have investigated the effect of mega dose intravenous vitamin C therapy on various parameters indicative of the progression of sepsis in sheep (Merino ewes, 35-45 kg; 1.5-2.0 years old). Sheep were divided into two groups, a vitamin C (sodium ascorbate) therapy group and a vehicle group as a control. Experimental protocols were approved by the Animal Ethics Committee of the Florey Institute of Neuroscience and Mental Health under guidelines of the National Health and Medical Research Council of Australia.
Preparatory surgical procedures were carried out as described in Lankadeva et al. (2018b). Briefly, two preparatory surgical procedures were performed under general anaesthesia. First, a carotid artery was exteriorised into a skin fold to form a carotid arterial loop to facilitate cannulation for measurement of arterial pressure and heart rate, and for blood sampling. During the same surgical procedure, a flow probe was placed around the pulmonary artery to measure cardiac output. Animals were allowed 3-4 weeks of recovery. Second, a flow probe was implanted around a renal artery to measure renal blood flow, a renal vein was cannulated for blood sampling and fibre optic probes were inserted into the renal cortex, renal medulla (within kidneys) and parietal cortex (brain) to measure tissue perfusion, oxygen tension and temperature.
During the second surgical procedure cannulae were implanted in the carotid artery for arterial pressure measurement and blood sampling and the jugular vein for infusion of fluids, vasopressors, Escherichia coli, sodium ascorbate and blood sampling, and a Foley catheter was inserted into the bladder to collect urine and monitor hourly urine output.
Following three days of recovery from the second surgical procedure, the experimental protocol (see FIG. 1) was initiated in conscious sheep, to avoid the confounding effects of general anaesthesia. Animals daily food and water intake and urine output was measured on a 24-hour basis during the course of the 5-day protocol.
First, a 24-hour baseline period was commenced, which included measurement of systemic haemodynamics, renal and brain perfusion and oxygenation, arterial, central venous and renal venous blood gases and lactate, and urine output. Arterial blood and urine samples were collected at set times during the experimental period.
After establishment of the 24-hour baseline period, gram-negative sepsis was induced by intravenous infusion of live E. coli (isolated from a patient with sepsis at Austin Health) as described in Lankadeva et al. (2018b), administered as a loading (bolus) infusion of 2.8×10^9 colony-forming units (CFU) over 30-minutes followed by a continuous infusion of 1.26×10^9 CFU/h for 30.5 hours. No prophylactic antibiotics, sedative or analgesic agents were administered during this protocol. The description in the following paragraphs is with reference to the protocol as shown schematically in FIG. 1.
At 23 hours of sepsis, when sheep had fulfilled the clinical criteria for sepsis (i.e. established hypotension, tachycardia, fever, lung injury, tachypnoea, hyperlactatemia and stage 1-2 acute kidney injury) animals were resuscitated with 30 mL/kg balanced crystalloid sodium lactate (Hartmann's solution infused at approximately 2500 ml/hr) for 30 mins, from 23-23.5 hours of sepsis.
A blocked randomization design was used to allocate sheep to treatment with sodium ascorbate or vehicle.

[3] = test system: septic human patient with severe COVID-19; assay: Mega-dose sodium ascorbate in one septic patient with severe COVID-19 (Example 2); format: in vivo
Text: FIG. 6. Changes in systemic hemodynamics and renal function in response to mega-dose sodium ascorbate (Na Asc) treatment in one septic human patient with a severe case of COVID-19 disease 2019 (n=1). Norepinephrine dose (A), arterial blood oxygen tension (PO2) (filled squares) and inspired oxygen fraction (open circles) (B), mean arterial pressure (C), serum creatinine (D), heart rate (E), and urine output (F) are presented at pre-treatment (time 0), after a 30-min infusion of Na Asc bolus therapy (BT, 30 g), and then at hourly intervals during an infusion of Na Asc for 6.5 hr (4.6 g/hr).
A person was admitted to ICU with severe COVID-19 disease. The patient presented with acute respiratory distress syndrome (ARDS), vasodilatory shock and acute kidney injury, with a temperature of 40° C. The patient was intubated and placed on a ventilator. At noon, their urinary output was 10 ml/hr.
The patient (weighing approximately 80 kg) was administered 30 g of intravenous sodium ascorbate over 30 minutes beginning at 1 pm, followed by an infusion of 30 g sodium ascorbate over the next 6 hours.

[4] = 1, 2 and 3 g/kg sodium ascorbate compared, n=2 each
[5] = 3 g/kg sodium ascorbate for 7 hours, n=2
[6] = sodium ascorbate infusion, 24-31 hr of sepsis
[7] = sodium ascorbate infusion, 24-31 hr of sepsis, maintained for the following 2 days

## O=C1O[C@H]([C@@H](O)CO)C([O-])=C1O.[Na+] [sodium ascorbate]
[1]; [4]
  increase in urinary output: greatest in the 3 g/kg sodium ascorbate treatment group
  normalisation of body temperature: strongest in the 3 g/kg sodium ascorbate treatment group
  recovery in arterial PO2: strongest in the 3 g/kg sodium ascorbate treatment group
  reduction in arterial blood lactate levels: greatest in the 3 g/kg sodium ascorbate treatment group
[1]; 1, 2 and 3 g/kg sodium ascorbate for 7 hours, n=2 each
  norepinephrine dose requirements: reduction in norepinephrine dose requirements with increased sodium ascorbate doses
[1]; [5]
  renal medullary oxygen levels: improvement
  vasopressor requirements for attaining target blood pressure (75-80 mm Hg): Total withdrawal of vasopressor requirements
[1]; during these pre-clinical studies
  adverse side-effects: No adverse side-effects were observed
[1]; intravenous, based on dose response analysis and Examples 1 and 2
  dose required to provide optimal benefits towards reversing the pathophysiological features of sepsis: at least 3 g/kg
[2]; after infusion of sodium ascorbate for 3 hours, 0.5 g/kg bolus then 0.5 g/kg/hr iv, n=5
  clinical state of septic sheep: dramatically improved
[2]; at 48 hours of recovery
  renal histology: acute tubular necrosis or interstitial fibrosis in renal cortex, corticomedullary junction or medulla: no acute tubular necrosis or interstitial fibrosis
[2]; by 4 hours of sodium ascorbate infusion, n=5
  dose of norepinephrine required to maintain mean arterial pressure: not required in four of five sheep
[2]; during sodium ascorbate therapy, 24-31 hr of sepsis, septic fever 41.4±0.2
  body temperature: ~39 °C
[2]; infusion of sodium ascorbate
  arterial blood potassium (hypokalemia): 3.14 ± 0.16 mmol/L
  arterial blood sodium (hypernatremia): 153.6 ± 1.7 mmol/L
[2]; sodium ascorbate 3.75 g/kg intravenous
  ischemia and hypoxia in the brain: a reversal of ischemia and hypoxia in the brain
[2]; [6]
  arterial blood pH: no effects
  cardiac output: significant, progressive decreases
  creatinine clearance: significantly increased
  fraction excretion of potassium: did not alter
  fractional excretion of sodium: significantly increased
  heart rate: significant, progressive decreases
  partial pressure of carbon dioxide: no effects
  plasma creatinine: corrected the increased plasma creatinine to below baseline levels
  renal blood flow: decreased toward healthy levels
  renal cortical tissue PO2: Neither fluid bolus therapy, sodium ascorbate, nor norepinephrine had significant effects
  renal vascular conductance: decreased toward healthy levels
[2]; sodium ascorbate infusion, 24-31 hr of sepsis, despite reduced norepinephrine dose
  level of peripheral vasoconstriction: increased
[2]; [7]
  renal medullary PO2: increased further throughout the infusion
  renal medullary perfusion: improved toward preseptic levels
[2]; sodium ascorbate infusion, 2.0±0.2 mmol/L at 23 hours of sepsis
  arterial lactate: significant, progressive reduction
[2]; sodium ascorbate infusion, 80±3 at 23 hours of sepsis
  arterial PO2: 96.5±3.4 mm Hg
[2]; sodium ascorbate treatment
  increase in plasma aspartate aminotransferase during sepsis: significantly reduced
  increase in plasma bilirubin during sepsis: significantly reduced
[2]; the 2 days following sodium ascorbate infusion
  urine flow: remained at normal baseline levels
[2]; within 30 minutes of sodium ascorbate infusion, remained high throughout the infusion
  urine flow: greater than 10 mL/kg/hr
[3]; 1st hour post initiation of treatment, 10 ml/hr prior to treatment
  urinary output: 175 mL/h
[3]; 2nd hour post initiation of treatment
  urinary output: 160 mL/h
[3]; 3rd hour post initiation of treatment
  urinary output: 400 mL/h
[3]; 4th hour post initiation of treatment
  urinary output: 180 mL/h
[3]; 5th hour post initiation of treatment
  urinary output: 125 mL/h
[3]; 6th hour post initiation of treatment
  urinary output: 145 mL/h
[3]; after 6 hours of sodium ascorbate treatment, 65 pre-treatment, FiO2:40%
  arterial blood oxygen levels: 90 mm Hg
[3]; after the treatment (intensive care day 15)
  time to extubation: 12 days
[3]; after treatment
  time to discharge from hospital without any complications: 22 days
[3]; during the treatment, decreased from 2.6
  lactate: 1.9 mmol/L
[3]; during the treatment, dropped from 0.45, positive end-expiratory pressure 14 cm H2O
  FiO2: 0.30
[3]; during the treatment, dropped from 130
  heart rate: 105 beats/min
[3]; human patient with COVID-19, mega dose intravenous vitamin C
  time in which blood pressure normalised, vasopressor requirements reduced and renal function improved: less than six hours
[3]; increase during the treatment, from 10
  urine flow: 400 mL/h
[3]; over the course of sodium ascorbate administration (30 g over 30 minutes then 30 g infusion), 118 before treatment, n=1
  plasma creatinine: 84 µmol/L
[3]; over the course of sodium ascorbate administration, 8 before
  norepinephrine infusion: 0 µg/min
